How the values were obtained:
[1] = biological target: T1, Recombinant STAT3 protein (STAT3(G127-I722)) (Homo sapiens, UniProt P40763); assay: STAT3 Fluorescence Polarization (FP) Assay; type: binding; details: STAT3(G127-I722) 25 nM, probe 5-FAM-GpYLPQTV-NH2 2 nM, 45-minute incubation
T1 construct: Recombinant STAT3 protein (STAT3(G127-I722))
Method in brief: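 STAT3(G127-I722), 25 nM, was mixed with 2 nM 5-FAM-GpYLPQTV-NH2 probe in HEPES pH 7.4 buffer with 1% DMSO and serially diluted compound. FP (mP) was read after 45 min at room temperature. IC50 came from nonlinear regression.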

[2] = biological target: T2, Recombinant STAT6 protein (STAT6(W123-T658)) (Homo sapiens, UniProt P42226); assay: STAT6 Fluorescence Polarization (FP) Assay; type: binding; details: STAT6(W123-T658) 250 nM, probe 5-FAM-ApYKPFQDLI-NH2 2 nM, 45-minute incubation
T2 construct: Recombinant STAT6 protein (STAT6(W123-T658))
T2 sequence (P42226 123-658): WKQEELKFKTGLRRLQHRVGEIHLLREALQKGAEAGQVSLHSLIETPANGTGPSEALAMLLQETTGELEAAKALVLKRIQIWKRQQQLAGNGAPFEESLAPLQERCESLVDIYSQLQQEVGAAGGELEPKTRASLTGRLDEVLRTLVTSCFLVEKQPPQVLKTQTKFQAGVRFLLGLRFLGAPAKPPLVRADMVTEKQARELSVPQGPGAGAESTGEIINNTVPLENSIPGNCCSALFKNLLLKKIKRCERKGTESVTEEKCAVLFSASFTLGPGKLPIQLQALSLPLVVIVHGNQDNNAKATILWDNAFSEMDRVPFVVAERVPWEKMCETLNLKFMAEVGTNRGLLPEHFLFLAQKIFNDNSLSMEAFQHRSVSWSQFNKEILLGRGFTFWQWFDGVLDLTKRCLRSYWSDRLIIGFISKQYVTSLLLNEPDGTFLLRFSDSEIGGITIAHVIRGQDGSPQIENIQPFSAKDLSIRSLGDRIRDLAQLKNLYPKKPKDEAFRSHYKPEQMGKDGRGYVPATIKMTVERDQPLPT
Method in brief: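 Displacement of a fluorescent phosphotyrosine peptide (5-FAM-ApYKPFQDLI-NH2, 2 nM) from STAT6(W123-T658) (250 nM), 1% DMSO, pH 7.4 HEPES buffer. After 45 min at room temperature, polarization (mP) was plotted versus log compound concentration and fitted by nonlinear regression to give IC50.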

T1 sequence (P40763 127-722): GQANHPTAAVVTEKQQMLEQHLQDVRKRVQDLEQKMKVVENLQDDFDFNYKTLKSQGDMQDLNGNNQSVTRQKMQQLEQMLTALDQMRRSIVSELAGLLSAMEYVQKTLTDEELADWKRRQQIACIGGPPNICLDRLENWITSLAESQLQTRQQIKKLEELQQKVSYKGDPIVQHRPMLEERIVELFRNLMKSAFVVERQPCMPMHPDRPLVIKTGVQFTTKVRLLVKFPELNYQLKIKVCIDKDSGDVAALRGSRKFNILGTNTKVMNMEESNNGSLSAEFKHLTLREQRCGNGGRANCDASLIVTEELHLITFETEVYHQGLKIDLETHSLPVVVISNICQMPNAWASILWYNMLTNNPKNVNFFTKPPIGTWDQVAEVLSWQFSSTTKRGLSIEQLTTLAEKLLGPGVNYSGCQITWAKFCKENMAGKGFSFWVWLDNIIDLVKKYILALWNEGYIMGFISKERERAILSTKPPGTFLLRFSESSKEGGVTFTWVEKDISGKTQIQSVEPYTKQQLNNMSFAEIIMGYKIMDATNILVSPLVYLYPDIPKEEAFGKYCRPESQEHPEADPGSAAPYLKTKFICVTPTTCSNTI

IC50 [1] [nM] | IC50 [2] [nM] | Structure (SMILES)
100 to 1000 | 300 to 3000 | CC(=O)N1CC[C@H]2CC[C@@H](C(=O)Nc3ccc(-c4ccccc4)cc3[N+](=O)[O-])N2C(=O)[C@@H](NC(=O)c2cc3cc(C(F)(F)P(=O)(O)O)ccc3s2)C1 [Compound 178]
100 to 1000 | 300 to 3000 | CC(=O)N1CC[C@H]2CC[C@@H](C(=O)Nc3ccc(-c4ccccc4)c([N+](=O)[O-])c3)N2C(=O)[C@@H](NC(=O)c2cc3cc(C(F)(F)P(=O)(O)O)ccc3s2)C1 [Compound 179, ((2-(((5S,8S,10aR)-3-acetyl-8-((2-nitro-[1,1′-biphenyl]-4-yl)carbamoyl)-6-oxodecahydropyrrolo[1,2-a][1,5]diazocin-5-yl)carbamoyl)benzo[b]thiophen-5-yl)difluoromethyl)phosphonic acid]
100 to 1000 | 300 to 3000 | CC(=O)N1CC[C@H]2CC[C@@H](C(=O)Nc3ccc(-c4ccccc4)[nH]c3=O)N2C(=O)[C@@H](NC(=O)c2cc3cc(C(F)(F)P(=O)(O)O)ccc3[nH]2)C1 [Compound 180, ((2-(((5S,8S,10aR)-3-acetyl-6-oxo-8-((2-oxo-6-phenyl-1,2-dihydropyridin-3-yl)carbamoyl)decahydropyrrolo[1,2-a][1,5]diazocin-5-yl)carbamoyl)-1H-indol-5-yl)difluoromethyl)phosphonic acid]
1000 to 10000 | 300 to 3000 | CC(=O)N1CC[C@H]2CC[C@@H](C(=O)Nc3ccccc3)N2C(=O)[C@@H](NC(=O)c2cc3cc(C(F)(F)P(=O)(O)O)ccc3s2)C1 [Compound 181, ((2-(((5S,8S,10aR)-3-acetyl-6-oxo-8-(phenylcarbamoyl)decahydropyrrolo[1,2-a][1,5]diazocin-5-yl)carbamoyl)benzo[b]thiophen-5-yl)difluoromethyl)phosphonic acid]
100 to 1000 | 300 to 3000 | CC(=O)N1CC[C@H]2CC[C@@H](C(=O)N[C@H]3CN(C(C)=O)C[C@@H]3O)N2C(=O)[C@@H](NC(=O)c2cc3cc(C(F)(F)P(=O)(O)O)ccc3s2)C1 [Compound 182, ((2-(((5S,8S,10aR)-3-acetyl-8-(((3S,4S)-1-acetyl-4-hydroxypyrrolidin-3-yl)carbamoyl)-6-oxodecahydropyrrolo[1,2-a][1,5]diazocin-5-yl)carbamoyl)benzo[b]thiophen-5-yl)difluoromethyl)phosphonic acid]
1000 to 10000 | 300 to 3000 | CC(=O)N1CC[C@H]2CC[C@@H](C(=O)N(C)[C@H]3CN(C(C)=O)C[C@@H]3O)N2C(=O)[C@@H](NC(=O)c2cc3cc(C(F)(F)P(=O)(O)O)ccc3s2)C1 [Compound 183, ((2-(((5S,8S,10aR)-3-acetyl-8-(((3S,4S)-1-acetyl-4-hydroxypyrolidin-3-yl)(methyl)carbamoyl)-6-oxodecaohydrpyrrolo[1,2-a][1,5]diazocin-5-yl)carbamoyl)benzo[b]thiophen-5-yl)difluoromethyl)phosphonic acid]
100 to 1000 | 300 to 3000 | CO[C@H]1CN(C(C)=O)C[C@@H]1NC(=O)[C@@H]1CC[C@@H]2CCN(C(C)=O)C[C@H](NC(=O)c3cc4cc(C(F)(F)P(=O)(O)O)ccc4s3)C(=O)N21 [Compound 184, ((2-(((5S,8S,10aR)-3-acetyl-8-(((3S,4S)-1-acetyl-4-methoxypyrrolidin-3-yl)carbamoyl)-6-oxodecahydropyrrolo[1,2-a][1,5]diazocin-5-yl)carbamoyl)benzo[b]thiophen-5-yl)difluoromethyl)phosphonic acid]
1000 to 10000 | 300 to 3000 | CC(=O)N1CC[C@H]2CC[C@@H](C(=O)N(C)c3ccc(C(C)(C)C)cc3)N2C(=O)[C@@H](NC(=O)c2cc3cc(C(F)(F)P(=O)(O)O)ccc3s2)C1 [Compound 185, ((2-(((5S,8S,10aR)-3-acetyl-8-((4-(tert-butyl)phenyl)(methyl)carbamoyl)-6-oxodecahydropyrrolo[1,2-a][1,5]diazocin-5-yl)carbamoyl)benzo[b]thiophen-5-yl)difluoromethyl)phosphonic acid]
1000 to 10000 | ≤ 300 | CC(=O)N1CC[C@H]2CC[C@@H](C(=O)N3CCC[C@H]3Cc3ccccc3)N2C(=O)[C@@H](NC(=O)c2cc3cc(C(F)(F)P(=O)(O)O)ccc3s2)C1 [Compound 186, ((2-(((5S,8S,10aR)-3-acetyl-8-((S)-2-benzylpyrrolidine-1-carbonyl)-6-oxodecahydropyrrolo[1,2-a][1,5]diazocin-5-yl)carbamoyl)benzo[b]thiophen-5-yl)difluoromethyl)phosphonic acid]
1000 to 10000 | 300 to 3000 | CC(=O)N1CC[C@H]2CC[C@@H](C(=O)N(C)c3ccc(Cl)cc3)N2C(=O)[C@@H](NC(=O)c2cc3cc(C(F)(F)P(=O)(O)O)ccc3s2)C1 [Compound 187, ((2-(((5S,8S,10aR)-3-acetyl-8-((4-chlorophenyl)(methyl)carbamoyl)-6-oxodecahydropyrrolo[1,2-a][1,5]diazocin-5-yl)carbamoyl)benzo[b]thiophen-5-yl)difluoromethyl)phosphonic acid]
1000 to 10000 | 300 to 3000 | CC(=O)N1CC[C@H]2CC[C@@H](C(=O)N(C)c3ccc(Cl)c(Cl)c3)N2C(=O)[C@@H](NC(=O)c2cc3cc(C(F)(F)P(=O)(O)O)ccc3s2)C1 [Compound 188, ((2-(((5S,8S,10aR)-3-acetyl-8-((3,4-dichlorophenyl)(methyl)carbamoyl)-6-oxodecahydropyrrolo[1,2-a][1,5]diazocin-5-yl)carbamoyl)benzo[b]thiophen-5-yl)difluoromethyl)phosphonic acid]
1000 to 10000 | 300 to 3000 | CC(=O)N1CC[C@H]2CC[C@@H](C(=O)Nc3ccc4ccnnc4c3)N2C(=O)[C@@H](NC(=O)c2cc3cc(C(F)(F)P(=O)(O)O)ccc3s2)C1 [Compound 189, ((2-(((5S,8S,10aR)-3-acetyl-8-(cinnolin-7-ylcarbamoyl)-6-oxodecahydropyrrolo[1,2-a][1,5]diazocin-5-yl)carbamoyl)benzo[b]thiophen-5-yl)difluoromethyl)phosphonic acid]
1000 to 10000 | 300 to 3000 | CC(=O)N1CC[C@H]2CC[C@@H](C(=O)N(C)c3ccc(N4CCOCC4)cc3)N2C(=O)[C@@H](NC(=O)c2cc3cc(C(F)(F)P(=O)(O)O)ccc3s2)C1 [Compound 190, ((2-(((5S,8S,10aR)-3-acetyl-8-(methyl(4-morpholinophenyl)carbamoyl)-6-oxodecahydropyrrolo[1,2-a][1,5]diazocin-5-yl)carbamoyl)benzo[b]thiophen-5-yl)difluoromethyl)phosphonic acid]
100 to 1000 | ≤ 300 | CC(=O)N1CC[C@H]2CC[C@@H](C(=O)N(C)c3ccc4nnccc4c3)N2C(=O)[C@@H](NC(=O)c2cc3cc(C(F)(F)P(=O)(O)O)ccc3s2)C1 [Compound 191, ((2-(((5S,8S,10aR)-3-acetyl-8-(cinnolin-6-yl(methyl)carbamoyl)-6-oxodecahydropyrrolo[1,2-a][1,5]diazocin-5-yl)carbamoyl)benzo[b]thiophen-5-yl)difluoromethyl)phosphonic acid]
1000 to 10000 | 3000 to 30000 | CC(=O)N1CC[C@H]2CC[C@@H](C(=O)N3CCC(C(=O)N4CCCCC4)CC3)N2C(=O)[C@@H](NC(=O)c2cc3cc(C(F)(F)P(=O)(O)O)ccc3s2)C1 [Compound 192, ((2-(((5S,8S,10aR)-3-acetyl-6-oxo-8-(4-(piperidine-1-carbonyl)piperidine-1-carbonyl)decahydropyrrolo[1,2-a][1,5]diazocin-5-yl)carbamoyl)benzo[b]thiophen-5-yl)difluoromethyl)phosphonic acid]

Reference: patent US20250179103A1, “6-OXODECAHYDROPYRROLO[1,2-A][1,5]DIAZOCINE AND 6-OXODECAHYDRO-4H-PYRROLO[2,1-D][1,5]THIAZOCINE DERIVATIVES AS STAT3 AND STAT6 MODULATORS FOR THE TREATMENT OF CANCER AND INFLAMMATORY CONDITIONS” (Recludix Pharma, Inc., priority 2022, published 2025)
